Laboratory results as given in US20220280507A1, “USES OF 5-METHYLTETRAHYDROFOLATE AND ITS COMPOSITION” (Lianyungang Jinkang Hexin Pharmaceutical Co., Ltd., priority 2019, published 2022).
Where two headings read alike, the source gives them in different places.

Key:
hyperlipemia rats [1] = assay: Hyperlipemia rats (high-fat diet), body mass, liver mass, liver index, NASH pathology; format: in vivo, SD rats; conditions: for Body mass / Liver index / Liver mass: 8 cases; for Pathological state (NASH): of 8 cases
Procedure: (§1) Experiment 5 Effect of 5-Methyltetrahydrofolate Calcium on Hyperlipemia Rats
(§2) 7 weeks later, one rat in the control group and one rat in the model group were sacrificed for liver tissue section to check fatty degeneration of hepatocytes (see Table 7) to confirm whether modeling was successful. The remaining 40 modeling rats were randomly divided into low-dose (1 mg·Kg−1) group, medium-dose (2 mg·Kg−1) group, high-dose (4 mg·Kg−1) group, positive drug group, and model group.
(§3) Bicyclol (place of origin: Beijing Xiehe Pharmaceutical Factory, specification: 25 mg/tablet, batch number: H20040467) was used as a positive drug.
(§4) After successful modeling, rats were administered drugs with dosages as prescribed for 60 consecutive days, continued to be fed with high-fat diet, and dissected on the 61st day. Liver was harvested and weighed, liver index was calculated, right lobe tissue was taken to prepare frozen sections, and fat staining was performed with Sudan III for pathological scoring according to guidelines for diagnosis and treatment of NAFLD. Another liver tissue was taken to prepare homogenate, and total cholesterol (TC), triglyceride (TG), malondialdehyde (MDA), and superoxide dismutase (SOD) in serum were detected.

hyperlipemia rats [2] = assay: Hyperlipemia rats (high-fat diet), biochemical indexes TG, TC, SOD, MDA; format: in vivo, SD rats
Procedure: as §1, §2, §3, §4

[3] = system: methanol metabolism in rats; conditions: n=5
Procedure: Experiment 10 Effects of Drinking and 5-Methyltetrahydrofolate on the Formate in the Urine of SD Rats
In order to study the effects of 5-methyltetrahydrofolate and ethanol on methanol metabolism in rats, SPF-grade female SD rats, fasted overnight, were divided into 4 groups: (1) ethanol group, with intragastric administration of ethanol at a dose of 1 g/kg respectively at 1, 2, 3 h, n=7; (2) control group, with intragastric administration of glucose at a dose of 1.6 g/kg (equivalent to alcohol calories) respectively at 1, 2, and 3 h, n=5; (3) 5-methyltetrahydrofolate group, with intragastric administration of 5-methyltetrahydrofolate calcium at a dose of 4 mg/kg at 0 h, followed by glucose at a dose of 1.6 g/kg (equivalent to alcohol calories) respectively at 1, 2, and 3 h, n=5; (4) 5-methyltetrahydrofolate alcohol group, with intragastric administration of 5-methyltetrahydrofolate calcium at a dose of 4 mg/kg at 0 h, followed by ethanol at a dose of 1 g/kg respectively at 1, 2, and 3 h, n=5.
Food grade alcohol was used, with a methanol content of less than 5 mg/L. Urine was collected, from 0 to 24 h, into a test tube containing 0.1 mL of thioethanol and stored at −70° C. The urine samples were divided into three parts, of which gas chromatographic method, fluorescence method and HPLC-DNPH derivative method were used to detect ethanol and methanol contents (see Table 16), formate content, and formaldehyde content (see Table 17) in urine, respectively.
The method for detecting formate is as follows: 0.1 mL of urine was mixed with 0.1 mL of 10 mmol/L NAD+, 0.1 mL of potassium phosphate buffer (pH 7.4, 20 mmol/L) and 50 μL of formate dehydrogenase, then 0.1 mL of diaphorase (4 U/mL), 50 μL of resazurin solution (0.2 mg/ml) and 0.5 ml of phosphate buffer (pH 6.00, 200 mmol/L) were added. The mixture was incubated at 37° C. for 5 min, then immersed in boiling water for 3 min, and then cooled to room temperature. Fluorescence spectrophotometry was used to determine the content of formate in the mixture, with an emission wavelength of 590 nm and an absorption wavelength of 565 nm.
The method for detecting formaldehyde is as follows: 0.1 ml of urine was taken and filtered through filtering membrane, 0.05 ml of 2,4-dinitrophenylhydrazine (DNPH, 0.1 g/L) and 0.25 ml of trifluoroacetic acid were added to it. The sample was vortexed for 30 s, centrifuged, […]. HPLC was used for analysis, with a detection wavelength of 355 nm, column temperature of 35° C., and mobile phase of 65% acetonitrile.

[4] = 5-methyltetrahydrofolate calcium 4 mg/kg ig at 0 h + ethanol 1 g/kg at 1, 2, 3 h
[5] = 5-methyltetrahydrofolate calcium 4 mg/kg ig at 0 h + glucose 1.6 g/kg at 1, 2, 3 h

Compound 5-methyltetrahydrofolate calcium has a Body mass (hyperlipemia rats [1]; high dose 4 mg·Kg−1, 60 d) of 472.49 ± 37.8 g, a Liver index (hyperlipemia rats [1]; high dose 4 mg·Kg−1, 60 d) of 2.3 ± 0.5 and a Liver mass (hyperlipemia rats [1]; high dose 4 mg·Kg−1, 60 d) of 10.9 ± 2.5 g. The “Pathological state (NASH)” value (hyperlipemia rats [1]; high dose 4 mg·Kg−1, 60 d) was 0 case, the Body mass (hyperlipemia rats [1]; low dose 1 mg·Kg−1, 60 d) was 445.89 ± 39.0 g and the Liver index (hyperlipemia rats [1]; low dose 1 mg·Kg−1, 60 d) was 3.4 ± 0.3. The Liver mass (hyperlipemia rats [1]; low dose 1 mg·Kg−1, 60 d) was 15.3 ± 3.5 g, the “Pathological state (NASH)” value (hyperlipemia rats [1]; low dose 1 mg·Kg−1, 60 d) was 1 case and the Body mass (hyperlipemia rats [1]; medium dose 2 mg·Kg−1, 60 d) was 452.93 ± 37.5 g. For the same compound, the Liver index (hyperlipemia rats [1]; medium dose 2 mg·Kg−1, 60 d) was 2.6 ± 0.2, the Liver mass (hyperlipemia rats [1]; medium dose 2 mg·Kg−1, 60 d) was 11.6 ± 2.9 g and the “Pathological state (NASH)” value (hyperlipemia rats [1]; medium dose 2 mg·Kg−1, 60 d) was 0 case. For the same compound, the MDA (hyperlipemia rats [2]; 1 mg·kg−1·d−1, 60 d) was 45.20 ± 8.17 nmol/mgprot, the SOD (hyperlipemia rats [2]; 1 mg·kg−1·d−1, 60 d) was 234.20 ± 21.36 U/mgprot and the TC (hyperlipemia rats [2]; 1 mg·kg−1·d−1, 60 d) was 1.45 ± 0.38 mmol/L. It also gave a TG (hyperlipemia rats [2]; 1 mg·kg−1·d−1, 60 d) of 1.07 ± 0.33 mmol/L, an MDA (hyperlipemia rats [2]; 2 mg·kg−1·d−1, 60 d) of 42.26 ± 9.35 nmol/mgprot and an SOD (hyperlipemia rats [2]; 2 mg·kg−1·d−1, 60 d) of 257.41 ± 30.29 U/mgprot. The TC (hyperlipemia rats [2]; 2 mg·kg−1·d−1, 60 d) was 1.57 ± 0.36 mmol/L, the TG (hyperlipemia rats [2]; 2 mg·kg−1·d−1, 60 d) was 1.03 ± 0.55 mmol/L and the MDA (hyperlipemia rats [2]; 4 mg·kg−1·d−1, 60 d) was 40.98 ± 11.37 nmol/mgprot. For the same compound, the SOD (hyperlipemia rats [2]; 4 mg·kg−1·d−1, 60 d) was 260.97 ± 30.04 U/mgprot, the TC (hyperlipemia rats [2]; 4 mg·kg−1·d−1, 60 d) was 1.50 ± 0.34 mmol/L and the TG (hyperlipemia rats [2]; 4 mg·kg−1·d−1, 60 d) was 1.05 ± 0.63 mmol/L.
With CN1c2c([nH]c(N)nc2=O)NCC1CNc1ccc(C(=O)N[C@@H](CCC(=O)O)C(=O)O)cc1 (stereo partly drawn) [5-methyltetrahydrofolate, N-[4-[[(2-amino-1,4,5,6,7,8-hexahydro-4-oxo-5-methyl-(6S), -(6R), and (6R,S)-pteridyl)methyl)amino)toluoyl-glutamic acid] the “Ethanol content in urine, 3 h” value [3, 4] was 11.6 ± 1.3 mg/L, the “Formaldehyde content in urine, 3 h” value [3, 4] was 0.8 ± 0.4 mg/L and the “Formate content in urine, 3 h” value [3, 4] was 241 ± 42 mg/L. The “Methanol content in urine, 3 h” value [3, 4] was 1.6 ± 0.3 mg/L, the “Ethanol content in urine, 4 h” value [3, 4] was 25.2 ± 2.2 mg/L and the “Formaldehyde content in urine, 4 h” value [3, 4] was 1.7 ± 0.6 mg/L. For the same compound, the “Formate content in urine, 4 h” value [3, 4] was 255 ± 30 mg/L, the “Methanol content in urine, 4 h” value [3, 4] was 2.5 ± 0.4 mg/L and the “Ethanol content in urine, 8 h” value [3, 4] was 24.1 ± 2.3 mg/L. For the same compound, the “Formaldehyde content in urine, 8 h” value [3, 4] was 2.9 ± 1.2 mg/L, the “Formate content in urine, 8 h” value [3, 4] was 345 ± 43 mg/L and the “Methanol content in urine, 8 h” value [3, 4] was 6.4 ± 1.0 mg/L. The “Ethanol content in urine, 12 h” value [3, 4] was 11.8 ± 2.0 mg/L, the “Formaldehyde content in urine, 12 h” value [3, 4] was 3.1 ± 1.0 mg/L and the “Formate content in urine, 12 h” value [3, 4] was 351 ± 45 mg/L. For the same compound, the “Methanol content in urine, 12 h” value [3, 4] was 4.4 ± 0.9 mg/L, the “Ethanol content in urine, 16 h” value [3, 4] was 4.3 ± 0.8 mg/L and the “Formaldehyde content in urine, 16 h” value [3, 4] was 1.9 ± 0.9 mg/L. For the same compound, the “Formate content in urine, 16 h” value [3, 4] was 247 ± 48 mg/L, the “Methanol content in urine, 16 h” value [3, 4] was 3.7 ± 0.9 mg/L and the “Ethanol content in urine, 24 h” value [3, 4] was 1.7 ± 0.7 mg/L. The “Formaldehyde content in urine, 24 h” value [3, 4] was 1.0 ± 0.5 mg/L, the “Formate content in urine, 24 h” value [3, 4] was 211 ± 39 mg/L and the “Methanol content in urine, 24 h” value [3, 4] was 1.9 ± 0.7 mg/L. The “Ethanol content in urine, 3 h” value [3, 5] was 0.6 ± 0.4 mg/L, the “Formaldehyde content in urine, 3 h” value [3, 5] was 0.8 ± 0.4 mg/L and the “Formate content in urine, 3 h” value [3, 5] was 215 ± 33 mg/L. The “Methanol content in urine, 3 h” value [3, 5] was 1.0 ± 0.3 mg/L, the “Ethanol content in urine, 4 h” value [3, 5] was 0.8 ± 0.5 mg/L and the “Formaldehyde content in urine, 4 h” value [3, 5] was 0.8 ± 0.5 mg/L. The “Formate content in urine, 4 h” value [3, 5] was 237 ± 42 mg/L, the “Methanol content in urine, 4 h” value [3, 5] was 1.1 ± 0.4 mg/L and the “Ethanol content in urine, 8 h” value [3, 5] was 1.5 ± 0.4 mg/L. The “Formaldehyde content in urine, 8 h” value [3, 5] was 0.7 ± 0.4 mg/L, the “Formate content in urine, 8 h” value [3, 5] was 198 ± 36 mg/L and the “Methanol content in urine, 8 h” value [3, 5] was 1.2 ± 0.4 mg/L. For the same compound, the “Ethanol content in urine, 12 h” value [3, 5] was 1.5 ± 0.3 mg/L, the “Formaldehyde content in urine, 12 h” value [3, 5] was 0.8 ± 0.3 mg/L and the “Formate content in urine, 12 h” value [3, 5] was 187 ± 32 mg/L. For the same compound, the “Methanol content in urine, 12 h” value [3, 5] was 1.1 ± 0.4 mg/L, the “Ethanol content in urine, 16 h” value [3, 5] was 1.7 ± 0.5 mg/L and the “Formaldehyde content in urine, 16 h” value [3, 5] was 0.8 ± 0.5 mg/L. For the same compound, the “Formate content in urine, 16 h” value [3, 5] was 190 ± 41 mg/L, the “Methanol content in urine, 16 h” value [3, 5] was 1.3 ± 0.5 mg/L and the “Ethanol content in urine, 24 h” value [3, 5] was 1.6 ± 0.4 mg/L. The “Formaldehyde content in urine, 24 h” value [3, 5] was 0.8 ± 0.4 mg/L, the “Formate content in urine, 24 h” value [3, 5] was 188 ± 36 mg/L and the “Methanol content in urine, 24 h” value [3, 5] was 1.1 ± 0.3 mg/L.
